Results from patent US4096259A, “Non-amphetaminic psychostimulating compositions of 1,4-disubstituted piperazines” (priority 1975, dated 1978).

What was measured:
[1] = Acute toxicity (LD50) in mice, per os; conditions: mouse, in vivo, po
Description: Acute toxicity was studied by determining the LD50 in mice, the derivatives being administered per os.

[2] = test system: exploration response in mice; assay: Psychostimulating activity: increase of exploration response in mice (actimetry); format: in vivo; conditions: Mus musculus, po, per os, dose which increases exploration response by 50%
Description: The psychostimulating activity was studied by determining the dose which increases the exploration response in mice (actimetry) by 50% (ED50),according to the method described by BOISSIER J.R. and SIMON P. (Arc. Int. Pharmacolyn, 1965, 212-221158).

[3] = Group toxicity (LD50 grouped mice / LD50 isolated mice); conditions: mouse, in vivo
[4] = test system: mortality with pentetrazole in mice; assay: Potentiation of mortality with pentetrazole in mice; format: in vivo; conditions: per os
[5] = test system: ptose with reserpine in mice; assay: Ptose antagonism with reserpine in mice; format: in vivo; conditions: Mus musculus, po, per os
[6] = test system: sleep in mice; assay: Anti-sleep activity in mice; format: in vivo
[7] = test system: dog cardiovascular system; assay: Secondary action on the dog cardiovascular system, intravenous; format: in vivo; conditions: intravenous administration
[8] = test system: rat isolated duodenum; assay: In vitro papaverine spasmolytic activity: duodenum contractions in rats induced by barium chloride; conditions: for Spasmolytic activity (papaverine hydrochloride = 1): in vitro, rat duodenum, barium chloride, relative to papaverine hydrochloride = 1
Method: The papaverine spasmolytic activity was measured "in vitro" by the concentration ratio: active principle/papaverine hydrochloride concentration, which reduces duodenum contractions in rats, induced by barium chloride, by 50% according to the method of POMARET J. C., SERGANT - ODY M., POURRIAS B. and HUGUET G. (Therapie, 1969, 24, 109-143).
(§1) Table V below gives, by way of example, the complementary pharmacological activities such as antiserotonin, adrenolytic and atropinic activities for derivatives N° 21, 23 and 33, the spasmolytic activity of which is the greatest for the rat isolated duodenum.

[9] = test system: rabbit aorta; assay: In vitro spasmolytic action on the rabbit aorta; conditions: papaverine hydrochloride = 1
Description: as §1

[10] = test system: rabbit isolated ear; assay: In vitro spasmolytic action on the rabbit isolated ear; conditions: papaverine hydrochloride = 1
Description: as §1

[11] = test system: paw vessels of the dog; assay: In vivo spasmolytic action on paw vessels of the dog; conditions: papaverine hydrochloride = 1
Description: as §1

[12] = test system: Guinea-pig seminal vesicle; assay: In vitro adrenolytic action on the Guinea-pig seminal vesicle; conditions: Yohimbine hydrochloride = 1
Description: as §1

[13] = test system: Guinea-pig ileum; assay: In vitro atropinic action on the Guinea-pig ileum; conditions: Atropine sulfate = 1
Description: as §1

Structure (SMILES)	LD50 [1]	ED50 [2]	Spasmolytic activity (papaverine hydrochloride = 1) [8]	also measured
O=C(O)CN1CCN(CCOC(c2ccccc2)c2ccccc2)CC1 [Derivative 1]	> 1600 mg/kg	400 mg/kg		
O=C(O)CCN1CCN(CCOC(c2ccccc2)c2ccccc2)CC1 [Derivative 2]	2250 mg/kg	80 mg/kg		selectivity ratio [3]: 0.6; Potentiation of mortality with pentetrazole in mice ED50 [4]: 320 mg/kg; ED50 [5]: 55 mg/kg; Anti-sleep activity in mice [6]: Nil; secondary action on the dog cardiovascular system [7]: devoid of any secondary action
O=C(O)CCCN1CCN(CCOC(c2ccccc2)c2ccccc2)CC1 [Derivative 3]	1500 mg/kg	80 mg/kg		selectivity ratio [3]: 1.25; Potentiation of mortality with pentetrazole in mice ED50 [4]: > 300 mg/kg; ED50 [5]: 160 mg/kg; Anti-sleep activity in mice [6]: Nil; secondary action on the dog cardiovascular system [7]: devoid of any secondary action
O=C(O)CN1CCN(CCOC(c2ccccc2)c2ccc(F)cc2)CC1 (stereo not shown) [Derivative 4]	1600 mg/kg	60 mg/kg		
O=C(O)CCN1CCN(CCOC(c2ccccc2)c2cccc(C(F)(F)F)c2)CC1 (stereo not shown) [Derivative 6]	1200 mg/kg	200 mg/kg		
COc1ccccc1C(OCCN1CCN(CCC(=O)O)CC1)c1ccccc1 (stereo not shown) [Derivative 7]	1400 mg/kg	> 400 mg/kg		
O=C(O)CCN1CCN(CCOC(c2ccccc2)c2ccc(Cl)cc2)CC1 (stereo not shown) [Derivative 8]	1000 mg/kg	30 mg/kg		
Cc1ccc(C(OCCN2CCN(CCC(=O)O)CC2)c2ccccc2)cc1 (stereo not shown) [Derivative 9]	1400 mg/kg	100 mg/kg		
COc1cc(C(OCCN2CCN(CCC(=O)O)CC2)c2ccccc2)cc(OC)c1OC (stereo not shown) [Derivative 10]	> 1600 mg/kg	> 400 mg/kg		
O=C(O)CCN1CCN(CCOC(c2ccc(F)cc2)c2ccc(F)cc2)CC1 [Derivative 11]	700 mg/kg	30 mg/kg	0,1	
O=C(O)CCCN1CCN(CCOC(c2ccccc2)c2ccc(F)cc2)CC1 (stereo not shown) [Derivative 12]	1200 mg/kg	35 mg/kg	0,1	
O=C(O)CCCCN1CCN(CCOC(c2ccccc2)c2ccc(F)cc2)CC1 (stereo not shown) [Derivative 13]	1400 mg/kg	35 mg/kg		
COC(=O)CCCCN1CCN(CCOC(c2ccc(F)cc2)c2ccc(F)cc2)CC1 [Derivative 14]	500 mg/kg	45 mg/kg	3,5	
CCOC(=O)CN1CCN(CCOC(c2ccc(F)cc2)c2ccc(F)cc2)CC1 [Derivative 15]	1200 mg/kg	40 mg/kg	6,5	
CCOC(=O)CCN1CCN(CCOC(c2ccccc2)c2ccccc2)CC1 [Derivative 16]	2000 mg/kg	100 mg/kg	1,5	selectivity ratio [3]: 0.8; Potentiation of mortality with pentetrazole in mice ED50 [4]: > 400 mg/kg; ED50 [5]: 190 mg/kg; Anti-sleep activity in mice [6]: Nil; secondary action on the dog cardiovascular system [7]: devoid of any secondary action
CCOC(=O)CCN1CCN(CCOC(c2ccccc2)c2ccccc2Cl)CC1 (stereo not shown) [Derivative 17]	1600 mg/kg	> 200 mg/kg	1,5	
CCOC(=O)CCN1CCN(CCOC(c2ccccc2)c2ccc(Cl)cc2)CC1 (stereo not shown) [Derivative 18]	1400 mg/kg	30 mg/kg	1	

Structure (SMILES)	LD50 [1]	ED50 [2]	Spasmolytic activity (papaverine hydrochloride = 1) [8]	also measured
CCOC(=O)CCN1CCN(CCOC(c2ccccc2)c2ccc(C)cc2)CC1 (stereo not shown) [Derivative 19]	> 1600 mg/kg	> 400 mg/kg	1,5	
CCOC(=O)CCN1CCN(CCOC(c2ccccc2)c2ccc([N+](=O)[O-])cc2)CC1 (stereo not shown) [Derivative 20]	> 1600 mg/kg	> 400 mg/kg	5,5	
CCOC(=O)CCN1CCN(CCOC(c2ccc(C)cc2)c2ccc(F)cc2)CC1 (stereo not shown) [Derivative 22]	> 1600 mg/kg	35 mg/kg	5,5	
CCOC(=O)CCCN1CCN(CCOC(c2ccc(F)cc2)c2ccc(F)cc2)CC1 [Derivative 23]	800 mg/kg	50 mg/kg	13,5	spasmolytic activity for the rat isolated duodenum (in words) ([8]; rat isolated duodenum): greatest; In vitro spasmolytic action on the rabbit aorta [9]: 3; In vitro spasmolytic action on the rabbit isolated ear [10]: 0,3; In vivo spasmolytic action on paw vessels of the dog [11]: 2; In vitro adrenolytic action on the Guinea-pig seminal vesicle [12]: 3; In vitro atropinic action on the Guinea-pig ileum [13]: > 0,01
CCOC(=O)CCCN1CCN(CCOC(c2ccccc2)c2ccc(F)cc2)CC1 (stereo not shown) [Derivative 24]	700 mg/kg	50 mg/kg	2,5	
CCCCOC(=O)CCN1CCN(CCOC(c2ccc(F)cc2)c2ccc(F)cc2)CC1 [Derivative 25]	500 mg/kg	40 mg/kg	0,5	
CCCCCCOC(=O)CCN1CCN(CCOC(c2ccc(F)cc2)c2ccc(F)cc2)CC1 [Derivative 26]	800 mg/kg	200 mg/kg	1	
CCOC(=O)CCN1CCN(CCCOC(c2ccccc2)c2ccccc2)CC1 [Derivative 27]	800 mg/kg	50 mg/kg	3,5	
CCOC(=O)CCN1CCN(CCCOC(c2ccccc2)c2ccc(F)cc2)CC1 (stereo not shown) [Derivative 28]	800 mg/kg	< 100 mg/kg	6,5	
N#CCCN1CCN(CCOC(c2ccccc2)c2ccccc2)CC1 [Derivative 29]	300 mg/kg	40 mg/kg	1	
NC(=O)CCN1CCN(CCOC(c2ccccc2)c2ccccc2)CC1 [Derivative 30]	1000 mg/kg	80 mg/kg	0,1	
O=C(CN1CCN(CCOC(c2ccccc2)c2ccccc2)CC1)N1CCOCC1 [Derivative 31]	800 mg/kg	100 mg/kg	0,5	
COc1ccccc1N1CCN(C(=O)CN2CCN(CCOC(c3ccccc3)c3ccccc3)CC2)CC1 [Derivative 32]	1200 mg/kg	100 mg/kg	2	
O=C(CN1CCN(CCOC(c2ccc(F)cc2)c2ccc(F)cc2)CC1)N1CCN(Cc2ccc3c(c2)OCO3)CC1 [Derivative 34]	> 1600 mg/kg	160 mg/kg	1,5	
CCCC(OCCN1CCN(CCC(=O)O)CC1)c1ccccc1 (stereo not shown) [Derivative 35]	> 1600 mg/kg	60 mg/kg		
CCCC(OCCN1CCN(CCC(=O)OCC)CC1)c1ccc(F)cc1 (stereo not shown) [Derivative 36]	1600 mg/kg	> 100 mg/kg	5	
